In BindingDB's records for doi:10.7270/Q23R0R98 (Johns Hopkins Ion Channel Center, 2010):
Structures can show the parent of a compound that is named as a salt.

Target: T1, Inward rectifier potassium channel 2 (Mus musculus, UniProt P35561)
T1 sequence (P35561 whole entry): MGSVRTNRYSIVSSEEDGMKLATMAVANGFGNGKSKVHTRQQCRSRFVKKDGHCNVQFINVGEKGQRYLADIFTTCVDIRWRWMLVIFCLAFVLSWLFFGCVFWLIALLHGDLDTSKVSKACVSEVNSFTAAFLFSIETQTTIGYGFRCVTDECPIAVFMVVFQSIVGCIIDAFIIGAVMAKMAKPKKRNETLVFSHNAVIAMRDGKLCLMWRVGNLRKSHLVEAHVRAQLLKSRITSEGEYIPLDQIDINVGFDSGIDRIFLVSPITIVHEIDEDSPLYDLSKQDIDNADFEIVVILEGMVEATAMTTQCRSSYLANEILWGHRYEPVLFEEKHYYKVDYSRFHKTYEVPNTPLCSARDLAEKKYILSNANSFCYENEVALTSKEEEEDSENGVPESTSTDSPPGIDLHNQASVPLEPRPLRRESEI
Assay: inhibitors of Kir2.1 potassium channel – mouse Kir2.1, dose response (AID 2594)

Structure (SMILES) | IC50 [µM]
COc1ccc(CNCc2cccc3ccccc23)cc1 | 26.9
CC(NS(=O)(=O)c1ccc(Br)s1)c1ccccc1 (stereo not given) | 19.8
Cc1ccc(OCC(O)CNCc2ccc(F)cc2)cc1 (stereo not given) [1-[(4-fluorophenyl)methylamino]-3-(4-methylphenoxy)propan-2-ol] | 24.6
Cc1ccc(Nc2cc(C)nc3c(C)cccc23)cc1 [2,8-dimethyl-N-(4-methylphenyl)quinolin-4-amine] | 43.1
Fc1ccc(N2CCN(Cc3c[nH]c4ccccc34)CC2)cc1 [3-[[4-(4-fluorophenyl)piperazin-1-yl]methyl]-1H-indole] | 30.6
CCn1c(COc2ccccc2)nnc1SCc1ccc(C#N)cc1 [4-[[4-ethyl-5-(phenoxymethyl)-1,2,4-triazol-3-yl]sulfanylmethyl]benzonitrile] | 48.3
Cc1ccc(O)c(CNCCNCc2cc(C)ccc2O)c1 [4-methyl-2-[[2-[(5-methyl-2-oxidanyl-phenyl)methylamino]ethylamino]methyl]phenol] | 21.5
COc1ccc(CNC/C=C/c2ccccc2)cc1 [(E)-N-[(4-methoxyphenyl)methyl]-3-phenyl-prop-2-en-1-amine;hydrochloride] | 22.3
Cc1ccc2[nH]c(NCc3ccccc3)nc2c1 [MLS000081058] | 33.4
c1ccc(COc2ccc(OCCCNC3CCCC3)cc2)cc1 [MLS000535503] | 33.5
CC(C)(C)OC(=O)NCCc1nnc(SCc2ccc(Cl)cc2)o1 [MLS000557943] | 15.8
CSc1ccc(S(=O)(=O)NC(C)c2ccccc2)cc1 (stereo not given) [MLS000693878] | 43
CCCN1CCC(NC23CC4CC(CC(C4)C2)C3)CC1 [N-(1-adamantyl)-1-propyl-4-piperidinamine] | 54.2
Clc1ccc(CNC2CCN(Cc3ccccc3)CC2)cc1 [N-[(4-chlorophenyl)methyl]-1-(phenylmethyl)-4-piperidinamine] | 37.7
COc1ccc(Nc2ccnc3ccccc23)cc1 [SMR000033695] | 34
CCn1c(Sc2ccc(N)cc2Cl)nc2ccccc21 [SMR000078102] | 35.6
O=S(=O)(c1ccc(F)cc1)N1CCCc2ccccc21 [SMR000514216] | 58.5
CC(NS(=O)(=O)c1ccc(Br)cc1)c1ccccc1 (stereo not given) [SMR000516693] | 25.6
COc1ccc(CNCCc2ccc3c(c2)OCO3)cc1Br [SMR000555601] | 34.7
CC(O)CNCCCOc1cccc(Oc2ccccc2)c1 (stereo not given) [oxalic acid;1-[3-(3-phenoxyphenoxy)propylamino]-2-propanol] | 23.6
